Test systems include COLO 205 colon; DU-145 prostate; HOP-62 NSCLC; HOP-92 NSCLC; KM12 colon; MOLT-4 leukemia; SK-MEL-2 melanoma; SN12C renal; SNB-75 CNS; T-47D breast.
What all share (assay): NCI anticancer screen, dose series, 48 h

Where “and” joins values, the source holds several entries; their conditions need not be identical. Identical values can stand only once.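 Five concentrations, 48 hours, 96-well plates. The concentration for 50% growth inhibition is given as GI50. TGI denotes the concentration required for complete inhibition of growth.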

For `C[C@H]1C[C@@H](n2c(Nc3ccc(OC(F)(F)F)cc3)nc3cc(CCC(=O)O)ccc32)CC(C)(C)C1`, the GI50 was 18.8 µM with COLO 205 colon; 13.8 µM with DU-145 prostate; 20.6 µM in the test on HOP-62 NSCLC; 16.4 µM with HOP-92 NSCLC; 10.5 µM in the test with KM12 colon; 9.37 µM with MOLT-4 leukemia. In addition, the GI50 is 15 µM in the test with SK-MEL-2 melanoma, 9.95 µM in the test with SN12C renal, 13.8 µM in the test with SNB-75 CNS and 14.3 µM with T-47D breast. Besides, the TGI in the test with COLO 205 colon came out at 39.4 µM; in the test on DU-145 prostate, 27.2 µM; in the test with HOP-62 NSCLC, 39.4 µM; with HOP-92 NSCLC it was 32.1 µM; in the test with KM12 colon it was 24 µM; in the test with MOLT-4 leukemia, 32.6 µM. Also, the TGI with SK-MEL-2 melanoma worked out at 34.6 µM; in the test with SN12C renal, 28 µM; in the test with SNB-75 CNS, 28 µM; in the test on T-47D breast, 44.5 µM.

For the compound `COc1ccc2nc3cc(Cl)ccc3c(Nc3ccccc3-c3ccccc3Nc3c4ccc(Cl)cc4nc4ccc(OC)cc34)c2c1`, the TGI was over 88 µM in the test with COLO 205 colon; over 100 µM with DU-145 prostate; over 94.9 µM in the test with HOP-62 NSCLC; over 82.5 µM in the test with HOP-92 NSCLC; over 100 µM in the test on KM12 colon; over 69.4 µM in the test with MOLT-4 leukemia. The TGI was over 73.7 µM with SK-MEL-2 melanoma, over 84.4 µM in the test with SN12C renal, over 72 µM in the test on SNB-75 CNS and 75.4 µM in the test on T-47D breast.

With `COc1ccc(-c2nc(NC(=O)CS(=O)(=O)c3ccc(F)cc3)sc2C)cc1`, the GI50 is 15.3 µM with COLO 205 colon; 34.5 µM in the test with DU-145 prostate; 22.4 µM in the test with HOP-62 NSCLC; 14.2 µM in the test with HOP-92 NSCLC; 14.6 µM with KM12 colon; 14.5 µM with MOLT-4 leukemia. The GI50 in the test on SK-MEL-2 melanoma was 15.2 µM; with SN12C renal, 19 µM; in the test with SNB-75 CNS, 9.45 µM; with T-47D breast, 21.7 µM. Besides, the TGI was 30.6 µM in the test with COLO 205 colon; over 100 µM in the test with DU-145 prostate; 87.1 µM with HOP-62 NSCLC; 48 µM in the test with HOP-92 NSCLC; 61 µM in the test with KM12 colon; over 100 µM in the test with MOLT-4 leukemia. Moreover, the TGI with SK-MEL-2 melanoma stood at 34.1 µM; with SN12C renal, 52.5 µM; in the test on SNB-75 CNS, 60.9 µM; with T-47D breast, 80.6 µM.

In the case of `CN1CCN(C2=C(Cl)C(=O)c3ccccc3C2=O)CC1`, the GI50 with COLO 205 colon is 1.51 µM; in the test with DU-145 prostate it was 1.74 µM; in the test with HOP-62 NSCLC it was 2.04 µM; in the test with HOP-92 NSCLC it was 1.52 µM; in the test on KM12 colon, 5.27 µM; in the test on MOLT-4 leukemia it was 2.2 µM. Further, the GI50 is 3.15 µM in the test on SK-MEL-2 melanoma, 1.61 µM with SN12C renal, 1.91 µM in the test on SNB-75 CNS and 0.789 µM in the test on T-47D breast. In addition, the TGI is 2.9 µM in the test on COLO 205 colon; 3.11 µM in the test with DU-145 prostate; 5.12 µM in the test with HOP-62 NSCLC; 3.07 µM in the test on HOP-92 NSCLC; 16.7 µM in the test with KM12 colon; 8.26 µM with MOLT-4 leukemia. Besides, the TGI was determined as 7.96 µM with SK-MEL-2 melanoma, 3.08 µM in the test on SN12C renal, 4.91 µM in the test with SNB-75 CNS and 2.73 µM in the test with T-47D breast.

As to `NC(CSC(c1ccccc1)(c1ccccc1)c1ccccc1)C(=O)O` (stereo not drawn), the GI50 was 3.27 µM and 1.34 µM with COLO 205 colon; 6.02 µM and 4.1 µM in the test with DU-145 prostate; 19.3 µM and 4.5 µM in the test on HOP-62 NSCLC; 2.17 µM and 10.1 µM in the test with HOP-92 NSCLC; 5.15 µM and 2.35 µM in the test with KM12 colon; 7.54 µM and 5.01 µM in the test on MOLT-4 leukemia. Moreover, the GI50 was 1.51 µM and 0.886 µM with SK-MEL-2 melanoma; 2.99 µM and 0.877 µM with SN12C renal; 2.34 µM with SNB-75 CNS; 3.46 µM with T-47D breast. The TGI in the test on DU-145 prostate is 85.5 µM and > 100 µM; in the test with HOP-62 NSCLC, 63 µM and > 100 µM; in the test with KM12 colon, 96.3 µM and 24 µM; in the test with MOLT-4 leukemia, 83.8 µM and 15.9 µM and > 100 µM; in the test with SK-MEL-2 melanoma, 5.34 µM and 9.72 µM and 5.63 µM; in the test on SN12C renal, 23.8 µM and 68.3 µM and > 100 µM. In addition, the TGI with SNB-75 CNS was 9.45 µM and 50.6 µM and 29.2 µM; in the test with T-47D breast, 54.9 µM and 53.4 µM.

With `NCC(=O)Nc1ccc(Cl)cc1C(=O)c1ccc[nH]1`, the TGI is over 100 µM in the test on COLO 205 colon; over 100 µM in the test with DU-145 prostate; over 100 µM in the test on HOP-62 NSCLC; over 76.5 µM with HOP-92 NSCLC; over 100 µM with KM12 colon; over 100 µM with MOLT-4 leukemia. Further, the TGI with SK-MEL-2 melanoma, in the test on SN12C renal, in the test with SNB-75 CNS and in the test with T-47D breast was over 100 µM each time.

Turning to `CC(C)(C)OC(=O)NCCCCCCCCCn1c2c(c3ccccc3c1=O)C(=O)c1ccccc1-2`, the GI50 in the test on COLO 205 colon is over 100 µM; in the test with DU-145 prostate, over 100 µM; with HOP-62 NSCLC, 24.8 µM; in the test on HOP-92 NSCLC, 14.6 µM; in the test with KM12 colon it was over 100 µM; with MOLT-4 leukemia, over 100 µM. In addition, the GI50 with SK-MEL-2 melanoma is 27.9 µM; with SN12C renal, 76.8 µM; in the test on SNB-75 CNS, 11.2 µM; in the test with T-47D breast, 78.9 µM. Further, the TGI in the test with COLO 205 colon is over 100 µM; in the test with DU-145 prostate, over 100 µM; with HOP-62 NSCLC it was 71.6 µM; with HOP-92 NSCLC, 41.6 µM; in the test with KM12 colon, over 100 µM; in the test with MOLT-4 leukemia, over 100 µM. Also, the TGI in the test on SK-MEL-2 melanoma was 71.1 µM; in the test with SN12C renal, over 100 µM; with SNB-75 CNS it was 36.8 µM; in the test on T-47D breast it was over 100 µM.
